These results are taken from US11066412B2, “Substituted pyrrolo[2,1-a]phthalazines and benzo[g]pyrrolo[2,1-a]phthalazines for the treatment of cancer” (Academia Sinica, priority 2017, dated 2021).

As a reminder, the IC50 is the midpoint of a concentration-inhibition curve.

The subject of one data set is H460 lung cancer cells. The data set can be described thus: cell cycle distribution by flow cytometry. It is filed as cell-based, human. On the procedure:
We further investigated the effects of BO-2590 on cell cycle progression in H460 lung cancer cells at the concentrations of 0, 0.125, 0.25, 0.5, 1 and 2 μM for 24, 48 and 72 hr. The cell cycle distribution was analyzed by flow cytometry. […] By increasing the concentration of BO-2590, significant arrest at the G2 phase was first observed, which was followed by the arrest of the S phase progression, and finally the G1 arrest appeared at 24 hr. However, following the incubation for 48 or 72 hr, while the cell cycle slowly processed, a significant amount of the sub-G1 cells started to appear (FIG. 6). The sub-G1 cells also represented apoptotic cells.
(In general: A flow cytometer gives signals particle by particle.)

In a further data set the test system is endothelial cells. The data set can be described thus: transwell migration assay. In kind it is cell-based. As to conditions: 8 hours; FIG. 4, panel A. How it is done: In the present example, we explored whether compound BO-2590 was able to suppress the cell migration using transwell migration assay.
Briefly, the endothelial cells were placed on the upper layer of a cell permeable membrane and a solution containing BO-2590 was placed below the cell permeable membrane. Following an incubation period (8 hours), the cells that had migrated through the membrane were stained and counted under a fluorescence microscopy.

Data set [1] can be described thus: solubility / hydrophobicity (statement). It is filed as physicochemical.
A further data set relates to EA.hy926 cells. Nature of the data set: Tube-Formation Assay. It is filed as cell-based. Conditions: 24 hr pre-treatment, 48-hr incubation on matrigel; FIG. 4. On the procedure: Angiogenesis is the process of generating new blood vessels derived as extensions from the existing vasculature. Performance of vascular behavior or monitoring tube formation can determine whether the compound is capable of interrupting angiogenesis. In this example, whether the compound of formula (I) interrupted angiogenesis was investigated using Tube-Formation Assay.
Briefly, EA.hy926 cells were treated with various concentrations of BO-2590 for 24 hr. After that, cells (5×10^5 cells/well) were suspended in 100 μl medium containing 1% FCS and subsequently seeded onto 96-well plate pre-coated with matrigel 1 h at 37° C. After a 48-hr incubation, tube-formation ability was examined under a phase microscope.

Another data set concerns the target T1, VEGFR-2 (Homo sapiens, UniProt P35968).
T1 construct: endogenous in cells; host or cells: EA.hy926 endothelial cells
The data set can be described thus: VEGFR-2 activation, western blotting in EA.hy926 cells. In kind it is cell-based. On the procedure:
In the present example, BO-2590 and BO-2577 were subject to the test of their activity in suppressing VEGFR-2 by western blotting analysis. Briefly, the endothelial EA.hy926 cells were incubated with BO-2590 or BO-2577 at various concentrations for 12 hr. The primary antibodies, anti-VEGFR-2 and anti-p-VEGFR-2, were used to blot the proteins of total VEGFR-2 and p-VEGFR-2, respectively. Results are illustrated in FIG. 3.

A further data set relates to γ-H2AX. The data set can be described thus: immunohistochemical staining of tumor xenograft sections, DNA damage marker. In kind it is in vivo, nude mice. Conditions: FIG. 16, panel B. On the procedure: Tumor xenograft tissue sections on the slides were deparaffinized in xylene twice for 7 min each time. The slides were then rehydrated in graded ethanol, serially from 100% to 70%, followed by rinsing in dH2O. Antigen retrieval was performed using citrate buffer (0.01M, pH 6.0) with incubation in a cooker for 50 mins followed by ambient temperature cooling for 30 min. and then dH2O rinsing. Later slides were subjected to immunohistochemical (IHC) staining with primary antibodies (anti-rabbit CD31 antibody and anti-mouse γ-H2AX antibody) obtained from Abeam® following the manufacturer's instructions (Novolink Polymer Detection system, Leica Biosystems, Wetzlar, Germany).^11 After IHC processing, the slides were scanned digitally using the Panoramic 250 Flash II whole slide scanner and analyzed by 3[…] Panoramic viewer software (3[…] Ltd., Budapest, Hungary).
As BO-2590L is a DNA damaging agent, we thus investigated the effect of BO-2590L on the level of a DNA damage marker, γ-H2AX, via the use of immunohistochemical staining.

A further data set has as its system H211. Nature of the data set: in vitro cytotoxicity to SCLC cells. It is filed as cell-based, human. Conditions: Table 3. A digest of the protocol: (§1)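 SCLC lines exposed to compounds for 72 h, then viability measured by PrestoBlue (1–2 h at 37° C, absorbance 570/600 nm).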
For the next data set, the system named is H146. The data set can be described thus: in vitro cytotoxicity to SCLC cells. It is filed as cell-based, human. As to conditions: Table 3. An outline of the steps: as §1
The next data set has as its system H1417. The data set can be described thus: in vitro cytotoxicity to SCLC cells. It is filed as cell-based, human. Conditions: Table 3. An outline of the steps:
as §1

The subject of another data set is H82. The data set can be described thus: in vitro cytotoxicity to SCLC cells. It is filed as cell-based, human. Conditions: Table 3. A digest of the protocol:
as §1

The next data set has as its system SCLC H211 xenografts. The data set can be described thus: tumor growth in xenograft-bearing nude mice, combination with cisplatin. In kind it is in vivo. As to conditions: co-administration of BO-2768 (20 mg/kg, 5 days + 1 day rest, two cycles) and cisplatin (2 or 4 mg/kg every 4 days ×3); FIG. 14, panel A. On the procedure: Athymic nude mice bearing the nu/nu gene were obtained from the National Laboratory Animal Center (Taipei, Taiwan). Male nude mice (6 weeks or older weighing 20-24 g or more) were used for all human tumor xenografts. The tested compounds were intravenously administered through tail vein. Tumor volume was determined by measuring the length x width x height (or width) with calipers. The vehicle used for the tested compounds was normal saline (0.9% NaCl isotonic solution). For tumor-bearing nude mice during the course of the experiment, the % body weight changes refer to: (the total weight on reading day/the total weight on day treatment started)×100.
In this example, the synergistic effect of BO-2768 and cisplatin on the suppression of tumor size and the body weight changes of the test subjects were investigated. To this purpose, an aliquot of H211 cells (5×10^6, 50 μl ) were implanted into nude mice subcutaneously. Then, the test animals were treated with BO-2768 or cisplatin, alone or in combination. BI-2768 (dissolved in 20% Kolliphor® HS 15, 10% Tween 80, 10% PEG400, […], and 40% distilled water) was administered at the dose of 20 mg/kg in […] for 5 consecutive days, then rest for one day; and the cycle was repeated once (i.e., a total of two cycles). Cisplatin was given at the dose of 2 or 4 mg/kg once every 4 days, for 3 times. Results are depicted in FIG. 14.

The structures appear in SMILES notation.

T1 sequence (P35968 20-1356): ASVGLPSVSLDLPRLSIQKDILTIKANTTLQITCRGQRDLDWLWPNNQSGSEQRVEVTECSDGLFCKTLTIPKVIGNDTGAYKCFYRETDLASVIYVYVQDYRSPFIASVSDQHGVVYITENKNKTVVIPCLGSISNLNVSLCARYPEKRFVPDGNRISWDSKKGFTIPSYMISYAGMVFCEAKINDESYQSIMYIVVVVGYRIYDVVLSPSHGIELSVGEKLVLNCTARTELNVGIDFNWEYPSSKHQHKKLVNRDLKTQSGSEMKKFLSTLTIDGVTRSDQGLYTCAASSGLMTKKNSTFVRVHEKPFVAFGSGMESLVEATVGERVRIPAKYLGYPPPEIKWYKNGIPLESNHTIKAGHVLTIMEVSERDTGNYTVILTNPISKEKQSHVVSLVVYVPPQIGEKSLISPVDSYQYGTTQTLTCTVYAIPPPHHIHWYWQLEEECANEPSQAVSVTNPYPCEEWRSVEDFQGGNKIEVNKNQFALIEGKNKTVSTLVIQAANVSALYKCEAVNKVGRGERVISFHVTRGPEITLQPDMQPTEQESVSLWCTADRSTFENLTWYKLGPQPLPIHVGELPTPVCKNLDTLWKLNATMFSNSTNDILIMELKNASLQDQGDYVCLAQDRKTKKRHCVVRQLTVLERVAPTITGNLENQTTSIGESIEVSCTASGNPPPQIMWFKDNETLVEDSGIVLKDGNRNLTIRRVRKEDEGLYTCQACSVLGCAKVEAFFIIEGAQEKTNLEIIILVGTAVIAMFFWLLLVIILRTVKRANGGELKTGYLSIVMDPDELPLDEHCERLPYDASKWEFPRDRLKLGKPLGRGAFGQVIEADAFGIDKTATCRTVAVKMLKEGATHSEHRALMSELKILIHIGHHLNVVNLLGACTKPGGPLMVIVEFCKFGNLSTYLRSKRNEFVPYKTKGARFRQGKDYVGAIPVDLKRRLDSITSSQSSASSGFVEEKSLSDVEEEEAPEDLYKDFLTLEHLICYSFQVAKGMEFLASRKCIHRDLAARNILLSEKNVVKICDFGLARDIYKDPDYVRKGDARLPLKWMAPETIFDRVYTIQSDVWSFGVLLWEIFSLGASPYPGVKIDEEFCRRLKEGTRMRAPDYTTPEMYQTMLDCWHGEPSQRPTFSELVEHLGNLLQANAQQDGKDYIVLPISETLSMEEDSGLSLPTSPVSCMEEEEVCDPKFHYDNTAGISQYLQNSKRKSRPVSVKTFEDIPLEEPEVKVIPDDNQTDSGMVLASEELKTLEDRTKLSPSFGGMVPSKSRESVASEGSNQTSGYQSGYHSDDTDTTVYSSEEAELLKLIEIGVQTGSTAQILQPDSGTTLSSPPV

Consider `Cc1c(CO)c(CO)c2c3ccccc3c(N3CCC(N4CCCCC4)CC3)nn12` [BO-2590, (6-([1,4′-Bipiperidin]-1′-yl)-3-methylpyrrolo[2,1-α]phthalazine-1,2-diyl)dimethanol], for which the cell cycle progression entry with H460 lung cancer cells (0.125-2 μM, 24, 48 and 72 hr, FIG. 5) is “dose-dependently interfered with cell cycle progression”. For the same compound, the “sub-G1 (apoptotic) cells” value in the data set with H460 lung cancer cells (48 or 72 hr, FIG. 6) was “dose-dependently induced the sub-G1 cells”. Further, in the data set on endothelial cells, the cell migration result is “impairment in cell migration”. Also, in data set [1], the solubility entry is given as “poor”. Also, the tube formation result in the data set with EA.hy926 cells was “markedly and dose-dependently abolished tube formation”. For the same compound, on VEGFR-2 (EA.hy926 cells, 12 hr, FIG. 3), the p-VEGFR-2 protein levels entry was “marked suppression in p-VEGFR-2 protein levels” and the “total protein levels of VEGFR-2” value is reported as “did not significantly change the total protein levels of VEGFR-2”. Moreover, the “dose effective on suppression of p-VEGFR-2, lower than that of Valatanib” value at VEGFR-2 (relative to Valatanib) is ~10 folds. Further, in the data set on γ-H2AX, the “γ-H2AX signals, quantitative analysis” value was “time-dependently increased in γ-H2AX signals”.

With `Cc1c(CO)c(CO)c2c3cc4ccccc4cc3c(N(C)C)nn12` [BO-2768, (6-(Dimethylamino)-3-methylbenzo[g]pyrrolo[2,1-α]phthalazine-1,2-diyl)dimethanol], the 50% inhibitory concentration (IC50) was found to be 0.17 ± 0.07 µM in the data set with H211, 1.17 ± 0.29 µM in the data set with H146, 0.42 ± 0.19 µM in the data set with H1417 and 0.31 ± 0.14 µM with H82. Further, the “tumor size, combination effect” value in the data set with SCLC H211 xenografts was “synergistic reduction in the tumor size”.
